# Patent US7803815B2, “Indol-3-yl-corbonyl-piperidin-benzoimidazol derivatives” (Hoffmann-La Roche Inc., priority 2005, dated 2010)
# Molecular target: T1, human V1a receptor (Homo sapiens, UniProt P37288)
# T1 construct: expressed in transfected cells; host or cells: HEK293 cells, transiently transfected; membrane preparation
# Experiment: human V1a receptor binding, 3H-Vasopressin SPA on membranes of transfected HEK293 cells
# Conditions: displacement of 4 nM 3H-Vasopressin; HEK293 cell membranes; 1 h at room temperature; Ki from IC50 by the Cheng-Prussoff equation
# Experimental: The human V1a receptor was cloned by RT-PCR from total human liver RNA. The coding sequence was subcloned in an expression vector after sequencing to confirm the identity of the amplified sequence. […] Cell membranes were prepared from HEK293 cells transiently transfected with the expression vector and grown in 20 liter fermenters with the following protocol.
# 50 g of cells are resuspended in 30 ml freshly prepared ice cold Lysis buffer (50 mM HEPES, 1 mM EDTA, 10 mM MgCl2 adjusted to pH=7.4+ complete cocktail of protease inhibitor (Roche Diagnostics)). Homogenized with Polytron for 1 min and sonicated on ice for 2×2 minutes at 80% intensity (Vibracell sonicator). The preparation is centrifuged 20 min at 500 g at 4° C., the pellet is discarded, and the supernatant centrifuged 1 hour at 43,000 g at 4° C. (19,000 rpm). The pellet is resuspended in 12.5 ml Lysis buffer+12.5 ml Sucrose 20% and homogenized using a Polytron for 1-2 min. The protein concentration is determined by the Bradford method, and aliquots are stored at −80° C. until use. For binding studies 60 mg Yttrium silicate SPA beads (Amersham) are mixed with an aliquot of membrane in binding buffer (50 mM Tris, 120 mM NaCl, 5 mM, KCl, 2 mM CaCl2, 10 mM MgCl2) for 15 minutes with mixing. 50 ul of bead/membrane mixture is then added to each well of a 96 well plate, followed by 50 ul of 4 nM 3H-Vasopressin (American Radiolabeled Chemicals). For total binding measurement, 100 ul of binding buffer are added to the respective wells, for non-specific binding 100 ul of […] cold vasopressin and for compound testing 100 ul of a serial dilution of each compound in 2% DMSO. The plate is incubated 1 h at room temperature, centrifuged 1 min at 1000 g and counted on a Packard Top-Count. Non-specific binding counts are subtracted from each well, and data is normalized to the maximum specific binding set at 100%. To calculate an IC 50, the curve is fitted using a non-linear regression model (XLfit), and the Ki is calculated using the Cheng-Prussoff equation.
# T1 sequence (P37288 whole entry): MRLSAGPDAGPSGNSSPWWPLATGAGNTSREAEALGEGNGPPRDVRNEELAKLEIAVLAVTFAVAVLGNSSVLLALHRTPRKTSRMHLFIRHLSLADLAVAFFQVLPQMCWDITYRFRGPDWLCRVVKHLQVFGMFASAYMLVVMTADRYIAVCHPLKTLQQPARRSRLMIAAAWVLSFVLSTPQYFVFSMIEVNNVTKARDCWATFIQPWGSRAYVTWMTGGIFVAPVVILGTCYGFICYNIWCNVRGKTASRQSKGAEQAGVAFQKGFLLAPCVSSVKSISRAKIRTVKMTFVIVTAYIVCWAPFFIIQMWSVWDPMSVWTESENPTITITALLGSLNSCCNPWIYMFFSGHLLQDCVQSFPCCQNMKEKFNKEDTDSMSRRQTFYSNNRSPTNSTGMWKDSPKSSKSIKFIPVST
row,Ki [nM],Compound
1,6,"Cc1c(C(=O)N2CCC(n3c(N4CCCCC4)nc4ccccc43)CC2)c2ccccc2n1Cc1ccccc1 [Example 4, (1-Benzyl-2-methyl-1H-indol-3-yl)-[4-(2-piperidin-1-yl-benzoimidazol-1-yl)-piperidin-1-yl]-methanone]"
2,13,"Cc1c(C(=O)N2CCC(n3c(=O)n(C)c4ccccc43)CC2)c2ccccc2n1Cc1ccccc1 [Example 9, 1-{1-[(1-benzyl-2-methyl-1H-indol-3-yl)carbonyl]piperidin-4-yl}-3-methyl-1,3-dihydro-2H-benzimidazol-2-one]"
3,39,"Cc1[nH]c2ccccc2c1C(=O)N1CCC(n2c(=O)[nH]c3ccccc32)CC1 [Example 10, 1-[1-(2-Methyl-1H-indole-3-carbonyl)-piperidin-4-yl]-1,3-dihydro-benzoimidazol-2-one]"
4,20,"COc1ccc2c(C(=O)N3CCC(n4c(=O)[nH]c5ccccc54)CC3)cn(C(C)C)c2c1 [Example 11, 1-[1-(1-Isopropyl-6-methoxy-1H-indole-3-carbonyl)-piperidin-4-yl]-1,3-dihydro-benzoimidazol-2-one]"
5,7,"O=C(c1c[nH]c2cc(Cl)ccc12)N1CCC(n2c(=O)[nH]c3ccccc32)CC1 [Example 18, 1-[1-(6-Chloro-1H-indole-3-carbonyl)-piperidin-4-yl]-1,3-dihydro-benzoimidazol-2-one]"
6,5,"O=C(c1c[nH]c2cc(Cl)c(F)cc12)N1CCC(n2c(=O)[nH]c3ccccc32)CC1 [Example 19, 1-[1-(6-Chloro-5-fluoro-1H-indole-3-carbonyl)-piperidin-4-yl]-1,3-dihydro-benzoimidazol-2-one]"
7,5,"Cc1c(C(=O)N2CCC(n3c(=O)n(CCN(C)C)c4ccccc43)CC2)c2ccccc2n1Cc1ccccc1 [Example 20, 1-[1-(1-Benzyl-2-methyl-1H-indole-3-carbonyl)-piperidin-4-yl]-3-(2-dimethylamino-ethyl)-1,3-dihydro-benzoimidazol-2-one]"
8,6,"N#CCn1cc(C(=O)N2CCC(n3c(=O)[nH]c4ccccc43)CC2)c2ccc(Cl)cc21 [Example 21, {6-Chloro-3-[4-(2-oxo-2,3-dihydro-benzoimidazol-1-yl)-piperidine-1-carbonyl]-indol-1-yl}-acetonitrile]"
9,11,"CCC(C)C(=O)c1[nH]c2ccccc2c1C(=O)N1CCC(n2c(=O)[nH]c3ccccc32)CC1 (centres unmarked) [Example 22, 1-{1-[2-(2-Methyl-butyryl)-1H-indole-3-carbonyl]-piperidin-4-yl}-1,3-dihydro-benzoimidazol-2-one]"
10,6,"Cc1c(C(=O)N2CCC(n3c(=O)[nH]c4ccccc43)CC2)c2ccccc2n1Cc1ccccc1 [Example 23, 1-[1-(1-Benzyl-2-methyl-1H-indole-3-carbonyl)-piperidin-4-yl]-1,3-dihydro-benzoimidazol-2-one]"
11,0.7,"CN(C)CCn1cc(C(=O)N2CCC(n3c(=O)[nH]c4ccccc43)CC2)c2ccc(Cl)cc21 [Example 26, 1-{1-[6-Chloro-1-(2-dimethylamino-ethyl)-1H-indole-3-carbonyl]-piperidin-4-yl}-1,3-dihydro-benzoimidazol-2-one]"
12,5,"CN(C)CCn1c(=O)n(C2CCN(C(=O)c3c[nH]c4cc(Cl)ccc34)CC2)c2ccccc21 [Example 27, 1-[1-(6-Chloro-1H-indole-3-carbonyl)-piperidin-4-yl]-3-(2-dimethylamino-ethyl)-1,3-dihydro-benzoimidazol-2-one]"
13,12,"O=C(c1cn(C(=O)c2cccc(F)c2)c2cc(Cl)ccc12)N1CCC(n2c(=O)[nH]c3ccccc32)CC1 [Example 28, 1-{1-[6-Chloro-1-(3-fluoro-benzoyl)-1H-indole-3-carbonyl]-piperidin-4-yl}-1,3-dihydro-benzoimidazol-2-one]"
14,22,"O=C(Cn1cc(C(=O)N2CCC(n3c(=O)[nH]c4ccccc43)CC2)c2ccc(Cl)cc21)c1cccc(F)c1 [Example 29, 1-(1-{6-Chloro-1-[2-(3-fluoro-phenyl)-2-oxo-ethyl]-1H-indole-3-carbonyl}-piperidin-4-yl)-1,3-dihydro-benzoimidazol-2-one]"
15,35,"O=C(c1cn(C(=O)c2ccccc2F)c2cc(Cl)ccc12)N1CCC(n2c(=O)[nH]c3ccccc32)CC1 [Example 30, 1-{1-[6-Chloro-1-(2-fluoro-benzoyl)-1H-indole-3-carbonyl]-piperidin-4-yl}-1,3-dihydro-benzoimidazol-2-one]"
16,25,"O=C(c1cn(C(=O)c2cccc(F)c2F)c2cc(Cl)ccc12)N1CCC(n2c(=O)[nH]c3ccccc32)CC1 [Example 31, 1-{1-[6-Chloro-1-(2,3-difluoro-benzoyl)-1H-indole-3-carbonyl]-piperidin-4-yl}-1,3-dihydro-benzoimidazol-2-one]"
17,5,"O=C(Cn1cc(C(=O)N2CCC(n3c(=O)[nH]c4ccccc43)CC2)c2ccc(Cl)cc21)c1cc(F)ccc1F [Example 35, 1-(1-{6-Chloro-1-[2-(2,5-difluoro-phenyl)-2-oxo-ethyl]-1H-indole-3-carbonyl}-piperidin-4-yl)-1,3-dihydro-benzoimidazol-2-one]"
18,6,"O=C(Cn1cc(C(=O)N2CCC(n3c(=O)[nH]c4ccccc43)CC2)c2ccc(Cl)cc21)c1ccc(F)cc1F [Example 36, 1-(1-{6-Chloro-1-[2-(2,4-difluoro-phenyl)-2-oxo-ethyl]-1H-indole-3-carbonyl}-piperidin-4-yl)-1,3-dihydro-benzoimidazol-2-one]"
19,15,"O=C(c1cn(C(=O)c2cc(F)cc(F)c2)c2cc(Cl)ccc12)N1CCC(n2c(=O)[nH]c3ccccc32)CC1 [Example 37, 1-{1-[6-Chloro-1-(3,5-difluoro-benzoyl)-1H-indole-3-carbonyl]-piperidin-4-yl}-1,3-dihydro-benzoimidazol-2-one]"

row,Compound,Ki [nM]
1,"Cc1c(C(=O)N2CCC(n3c(Cl)nc4ccccc43)CC2)c2ccccc2n1Cc1ccccc1 [Example 1, (1-Benzyl-2-methyl-1H-indol-3-yl)-[4-(2-chloro-benzoimidazol-1-yl)-piperidin-1-yl]-methanone]",45
2,"Cc1c(C(=O)N2CCC(n3c(N4CCOCC4)nc4ccccc43)CC2)c2ccccc2n1Cc1ccccc1 [Example 3, (1-Benzyl-2-methyl-1H-indol-3-yl)-[4-(2-morpholin-4-yl-benzoimidazol-1-yl)-piperidin-1-yl]-methanone]",18
3,"O=C(c1cn(Cc2ccccc2)c2ccccc12)N1CCC(n2c(=O)[nH]c3ccccc32)CC1 [Example 8, 1-[1-(1-Benzyl-1H-indole-3-carbonyl)-piperidin-4-yl]-1,3-dihydro-benzoimidazol-2-one]",13
4,"CC(C)n1cc(C(=O)N2CCC(n3c(=O)[nH]c4ccccc43)CC2)c2ccc(F)cc21 [Example 12, 1-[1-(6-Fluoro-1-isopropyl-1H-indole-3-carbonyl)-piperidin-4-yl]-1,3-dihydro-benzoimidazol-2-one]",13
5,"CC(C)n1cc(C(=O)N2CCC(n3c(=O)[nH]c4ccccc43)CC2)c2ccc(Cl)cc21 [Example 13, 1-[1-(6-Chloro-1-isopropyl-1H-indole-3-carbonyl)-piperidin-4-yl]-1,3-dihydro-benzoimidazol-2-one]",2
6,"CC(C)n1cc(C(=O)N2CCC(n3c(=O)[nH]c4ccccc43)CC2)c2ccccc21 [Example 14, 1-[1-(1-Isopropyl-1H-indole-3-carbonyl)-piperidin-4-yl]-1,3-dihydro-benzoimidazol-2-one]",32
7,"O=C(c1cn(Cc2ccccc2)c2cc(Cl)ccc12)N1CCC(n2c(=O)[nH]c3ccccc32)CC1 [Example 24, 1-[1-(1-Benzyl-6-chloro-1H-indole-3-carbonyl)-piperidin-4-yl]-1,3-dihydro-benzoimidazol-2-one]",2
8,"O=C(c1cn(CC2CCCCC2)c2ccccc12)N1CCC(n2c(=O)[nH]c3ccccc32)CC1 [Example 25, 1-[1-(1-Cyclohexylmethyl-1H-indole-3-carbonyl)-piperidin-4-yl]-1,3-dihydro-benzoimidazol-2-one]",20
9,"O=C(c1cn(Cc2cc(F)cc(F)c2)c2cc(Cl)ccc12)N1CCC(n2c(=O)[nH]c3ccccc32)CC1 [Example 33, 1-{1-[6-Chloro-1-(3,5-difluoro-benzyl)-1H-indole-3-carbonyl]-piperidin-4-yl}-1,3-dihydro-benzoimidazol-2-one]",15
10,"O=C(c1cn(Cc2cccc(F)c2)c2cc(Cl)ccc12)N1CCC(n2c(=O)[nH]c3ccccc32)CC1 [Example 34, 1-{1-[6-Chloro-1-(3-fluoro-benzyl)-1H-indole-3-carbonyl]-piperidin-4-yl}-1,3-dihydro-benzoimidazol-2-one]",9
